# From patent publication US20060069132A1, “Azolecarboxamide herbicides” (priority 2004, published 2006)
# Legend:
# wheat = assay: Test B postemergence herbicide test; assay type: in vivo, Triticum aestivum; set-up: key to Wheat plant response rating: 0 = no effect, 100 = complete control
# Method in brief: (§1)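 Read-out: visual comparison with controls, scored 0 to 100, where 100 means complete control and 0 no effect. Formulated chemicals were applied postemergence to plants 2–18 cm tall (1- to 4-leaf), or to flooded-paddy plants at the 2-leaf stage, then held 13 to 15 days under glass.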
# ducksalad [1] = assay: Test C flooded paddy test; assay type: in vivo, Heteranthera limosa; details: for Plant response rating, Ducksalad: 500 g ai/ha, visual rating after 12 to 14 days
# lambsquarters = assay: Test B pre-/postemergence herbicide test; assay type: in vivo, Chenopodium album
# Method in brief: (§2)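 Evaluation is visual, comparing treated with control plants on a scale where 0 means no effect and 100 means full control. Treatments were preemergence, or postemergence on seedlings 2–18 cm tall, and held 13–15 days in the greenhouse.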
# barnyardgrass [2] = assay: Test C flooded paddy test; assay type: in vivo, Echinochloa crus-galli; details: for Plant response rating, Barnyardgrass: 500 g ai/ha, visual rating after 12 to 14 days
# Method in brief: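 Postemergence sprays were applied to plants 2 to 18 cm tall (1- to 4-leaf stage); in the flooded paddy test, barnyardgrass was grown to the 2-leaf stage. After 12 to 14 days in a greenhouse, injury was visually rated against untreated controls on a 0–100 scale (100 = complete control).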
# velvetleaf = assay: Test B pre-/postemergence herbicide test; assay type: in vivo, Abutilon theophrasti
# Method in brief: as §2
# pigweed = assay: Test B pre-/postemergence herbicide test; assay type: in vivo, Amaranthus retroflexus
# Method in brief: as §2
# cocklebur = assay: Test B pre-/postemergence herbicide test; assay type: in vivo, Xanthium strumarium
# Method in brief: (§3)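 Formulation: non-phytotoxic solvent mix with surfactant. Timing: preemergence on seed and postemergence on 2–18 cm plants, applied concurrently. Readout after 13–15 d greenhouse: visual 0–100 control rating against controls.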
# wild oat = assay: Test B postemergence herbicide test; assay type: in vivo, Avena fatua
# Method in brief: as §1
# large crabgrass = assay: Test B pre-/postemergence herbicide test; assay type: in vivo, Digitaria sanguinalis
# Method in brief: as §2
# giant foxtail = assay: Test B pre-/postemergence herbicide test; assay type: in vivo, Setaria faberi
# Method in brief: as §2
# rice [3] = assay: Test B pre-/postemergence herbicide test; assay type: in vivo, Oryza sativa; details: 0 = no effect, 100 = complete control, preemergence; for Rice plant response rating (0 to 100 scale): 125 g ai/ha; for Plant response rating, Rice: 500 g ai/ha, visual rating
# Method in brief: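 Plants compared with untreated controls 13–15 days post-treatment and given a visual 0–100 injury score. Applications: preemergence to seeds; postemergence at 1- to 4-leaf (2–18 cm); paddy species flooded, 2-leaf stage. Vehicle non-phytotoxic, surfactant included.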
# barnyardgrass [4] = assay: Test B flooded paddy test; assay type: in vivo, Echinochloa crus-galli; details: 1000 g ai/ha, scale 0 to 100 (0 no effect, 100 complete control)
# Method in brief: (§4)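 Scale 0–100: zero equals no visible effect, 100 complete control, judged by eye relative to controls. Timing: 13 to 15 days in greenhouse post-treatment. Growth stage at spraying: two leaves (paddy) or one to four leaves, 2–18 cm (postemergence).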
# corn = assay: Test B pre-/postemergence herbicide test; assay type: in vivo, Zea mays
# Method in brief: as §2
# Surinam grass = assay: Test B pre-/postemergence herbicide test; assay type: in vivo, Urochloa decumbens
# Method in brief: as §2
# morningglory = assay: Test B pre-/postemergence herbicide test; assay type: in vivo, Ipomoea coccinea
# Method in brief: as §3
# ducksalad [5] = assay: Test B flooded paddy test; assay type: in vivo, Heteranthera limosa; details: 1000 g ai/ha, scale 0 to 100 (0 no effect, 100 complete control)
# Method in brief: as §4
# rice [6] = assay: Test C flooded paddy test; assay type: in vivo, Oryza sativa; details: for Plant response rating, Rice: 500 g ai/ha, visual rating after 12 to 14 days
# Method in brief: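 Injury scored visually against controls on a 0 (no effect) to 100 (complete control) scale, 12 to 14 days after treatment in greenhouse. Flooded paddy plants treated at 2-leaf stage; postemergence plants at 1- to 4-leaf stage, 2 to 18 cm tall.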
# rice [7] = assay: Test B flooded paddy test; assay type: in vivo, Oryza sativa; details: 1000 g ai/ha, scale 0 to 100 (0 no effect, 100 complete control)
# Method in brief: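 Each value is a visual 0–100 response rating taken against controls 13 to 15 days after treatment in the greenhouse. Plants received formulated chemical postemergence at the 1- to 4-leaf stage or, in flooded paddy, at the 2-leaf stage.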
# [8] = tested on: smallflower umbrella sedge; assay: Test C flooded paddy test; assay type: in vivo, Cyperus difformis; details: for Plant response rating, Sedge, Umbrella: 500 g ai/ha, visual rating after 12 to 14 days
# barnyardgrass [9] = assay: Test B pre-/postemergence herbicide test; assay type: in vivo, Echinochloa crus-galli
# Method in brief: as §3
# [10] = tested on: small flower umbrella sedge; assay: Test B flooded paddy test; assay type: in vivo, Cyperus difformis; details: 1000 g ai/ha, scale 0 to 100 (0 no effect, 100 complete control)
# Method in brief: as §4
# blackgrass = assay: Test B postemergence herbicide test; assay type: in vivo, Alopecurus myosuroides
# Method in brief: as §4
# [11] = postemergence, 125 g ai/ha; visual rating, scale 0 (no effect) to 100 (complete control)
# [12] = postemergence, 500 g ai/ha; scale 0 to 100, 0 is no effect, 100 is complete control
# [13] = 125 g ai/ha, scale 0 to 100 (0 no effect, 100 complete control)
# [14] = 250 g ai/ha, scale of 0 to 100, 0 is no effect, 100 is complete control
# [15] = scale 0 to 100 (0 no effect, 100 complete control)
# [16] = 500 g ai/ha; visual rating, 0 = no effect, 100 = complete control; preemergence
# [17] = 62 g ai/ha, scale 0 to 100 (0 no effect, 100 complete control)
# [18] = 125 g ai/ha; 0 = no effect, 100 = complete control; preemergence
# [19] = postemergence, 500 g ai/ha; visual rating, scale 0 (no effect) to 100 (complete control)
# [20] = 125 g ai/ha; visual rating, scale 0 (no effect) to 100 (complete control); postemergence
smiles,measurement,setting,value
CCn1nc(C(C)(C)C)cc1C(=O)Nc1cncc(C(=O)N2CC=CC2)c1 [Compound 260],Wheat plant response rating,wheat; [11],20
same,Wheat plant response rating,wheat; [12],40
same,Ducksalad plant response rating,"ducksalad [1]; 62 g ai/ha, scale 0 to 100",0
same,Ducksalad plant response rating,ducksalad [1]; [13],70
same,Ducksalad plant response rating,ducksalad [1]; [14],75
same,"Plant response rating, Ducksalad",ducksalad [1]; [15],85
same,"Plant response rating, Lambsquarters",lambsquarters; [16],100
same,Lambsquarters plant response rating,lambsquarters; [11],10
same,Lambsquarters plant response rating,lambsquarters; [12],30
same,Barnyardgrass plant response rating,barnyardgrass [2]; [17],0
same,Barnyardgrass plant response rating,barnyardgrass [2]; [13],0
same,Barnyardgrass plant response rating,barnyardgrass [2]; [14],20
same,"Plant response rating, Barnyardgrass",barnyardgrass [2]; [15],35
same,Velvetleaf plant response rating (0 to 100 scale),velvetleaf; [18],0
same,"Plant response rating, Velvetleaf",velvetleaf; [16],10
same,Velvetleaf plant response rating,velvetleaf; [11],0
same,Velvetleaf plant response rating,velvetleaf; [12],20
same,"Plant response rating, Pigweed",pigweed; [16],100
same,Pigweed plant response rating,pigweed; [11],20
same,Pigweed plant response rating,pigweed; [12],70
same,Cocklebur plant response rating (0 to 100 scale),cocklebur; [18],0
same,"Plant response rating, Cocklebur",cocklebur; [16],0
same,Cocklebur plant response rating,cocklebur; [11],10
same,Cocklebur plant response rating,cocklebur; [19],20
same,"Oat, Wild plant response rating",wild oat; [11],20
same,"Oat, Wild plant response rating",wild oat; [12],30
same,"Crabgrass, Large plant response rating (0 to 100 scale)",large crabgrass; [18],0
same,"Crabgrass, Large plant response rating",large crabgrass; [11],0
same,"Crabgrass, Large plant response rating",large crabgrass; [12],10
same,"Foxtail, Giant plant response rating (0 to 100 scale)",giant foxtail; [18],0
same,"Plant response rating, Foxtail, Giant",giant foxtail; [16],30
same,"Foxtail, Giant plant response rating",giant foxtail; [11],0
same,"Foxtail, Giant plant response rating",giant foxtail; [12],0
same,Rice plant response rating (0 to 100 scale),rice [3],0
same,"Plant response rating, Rice",rice [3],30
same,Barnyardgrass plant response rating,barnyardgrass [4],60
same,Corn plant response rating (0 to 100 scale),corn; [18],0
same,"Plant response rating, Corn",corn; [16],0
same,Corn plant response rating,corn; [11],0
same,Corn plant response rating,corn; [12],0
same,Surinam Grass plant response rating (0 to 100 scale),Surinam grass; [18],0
same,"Plant response rating, Surinam Grass",Surinam grass; [16],10
same,Surinam Grass plant response rating,Surinam grass; [11],0
same,Surinam Grass plant response rating,Surinam grass; [12],20
same,Morningglory plant response rating (0 to 100 scale),morningglory; [18],0
same,"Plant response rating, Morningglory",morningglory; [16],0
same,Morningglory plant response rating,morningglory; [11],0
same,Morningglory plant response rating,morningglory; [12],10
same,Ducksalad plant response rating,ducksalad [5],90
same,Rice plant response rating,"rice [6]; 62 g ai/ha, scale 0 to 100",0
same,Rice plant response rating,rice [6]; [13],0
same,Rice plant response rating,rice [6]; [14],0
same,"Plant response rating, Rice",rice [6]; [15],15
same,Rice plant response rating,rice [7],70
same,"Sedge, Umbrella plant response rating","[8]; 62 g ai/ha, scale 0 to 100",0
same,"Sedge, Umbrella plant response rating",[8]; [13],40
same,"Sedge, Umbrella plant response rating",[8]; [14],65
same,"Plant response rating, Sedge, Umbrella",[8]; [15],65
same,Barnyardgrass plant response rating (0 to 100 scale),barnyardgrass [9]; [18],0
same,"Plant response rating, Barnyardgrass",barnyardgrass [9]; [16],70
same,Barnyardgrass plant response rating,barnyardgrass [9]; [11],0
same,Barnyardgrass plant response rating,barnyardgrass [9]; [19],0
same,"Sedge, Umbrella plant response rating",[10],70
same,Blackgrass plant response rating,blackgrass; [11],10
same,Blackgrass plant response rating,blackgrass; [19],10
CCN(CC)C(=O)c1ccc(F)c(NC(=O)C2CC(C(C)(C)C)=NN2CC)c1 (racemic) [Compound 308],Wheat plant response rating,wheat; [20],10
same,Wheat plant response rating,wheat; [12],20
same,Ducksalad plant response rating,"ducksalad [1]; 62 g ai/ha, scale 0 to 100",0
same,Ducksalad plant response rating,ducksalad [1]; [13],0
same,Ducksalad plant response rating,ducksalad [1]; [14],15
same,"Plant response rating, Ducksalad",ducksalad [1]; [15],75
same,Lambsquarters plant response rating (0 to 100 scale),lambsquarters; [18],100
same,Lambsquarters plant response rating,lambsquarters; [20],50
same,"Plant response rating, Lambsquarters",lambsquarters; [16],100
same,Lambsquarters plant response rating,lambsquarters; [12],60
same,Barnyardgrass plant response rating,barnyardgrass [2]; [17],0
same,Barnyardgrass plant response rating,barnyardgrass [2]; [13],0
same,Barnyardgrass plant response rating,barnyardgrass [2]; [14],25
same,"Plant response rating, Barnyardgrass",barnyardgrass [2]; [15],65
same,Velvetleaf plant response rating,velvetleaf; [20],10
same,"Plant response rating, Velvetleaf",velvetleaf; [16],100
same,Velvetleaf plant response rating,velvetleaf; [12],20
same,Pigweed plant response rating (0 to 100 scale),pigweed; [18],80
same,Pigweed plant response rating,pigweed; [20],60
same,"Plant response rating, Pigweed",pigweed; [16],100
same,Pigweed plant response rating,pigweed; [12],70
same,Cocklebur plant response rating (0 to 100 scale),cocklebur; [18],0
same,Cocklebur plant response rating,cocklebur; [20],0
same,"Plant response rating, Cocklebur",cocklebur; [16],0
same,Cocklebur plant response rating,cocklebur; [12],40
same,"Oat, Wild plant response rating",wild oat; [20],10
same,"Oat, Wild plant response rating",wild oat; [12],20
same,"Crabgrass, Large plant response rating (0 to 100 scale)",large crabgrass; [18],40
same,"Crabgrass, Large plant response rating",large crabgrass; [20],0
same,"Plant response rating, Crabgrass, Large",large crabgrass; [16],70
same,"Crabgrass, Large plant response rating",large crabgrass; [12],10
same,"Foxtail, Giant plant response rating (0 to 100 scale)",giant foxtail; [18],10
same,"Foxtail, Giant plant response rating",giant foxtail; [20],10
same,"Plant response rating, Foxtail, Giant",giant foxtail; [16],90
same,"Foxtail, Giant plant response rating",giant foxtail; [12],20
same,Rice plant response rating (0 to 100 scale),rice [3],20
same,"Plant response rating, Rice",rice [3],50
same,Barnyardgrass plant response rating,barnyardgrass [4],90
same,Corn plant response rating (0 to 100 scale),corn; [18],20
same,Corn plant response rating,corn; [20],0
same,"Plant response rating, Corn",corn; [16],70
same,Corn plant response rating,corn; [12],10
same,Surinam Grass plant response rating (0 to 100 scale),Surinam grass; [18],20
same,Surinam Grass plant response rating,Surinam grass; [20],10
same,"Plant response rating, Surinam Grass",Surinam grass; [16],60
same,Surinam Grass plant response rating,Surinam grass; [12],20
same,Morningglory plant response rating (0 to 100 scale),morningglory; [18],0
same,Morningglory plant response rating,morningglory; [20],0
same,"Plant response rating, Morningglory",morningglory; [16],10
same,Morningglory plant response rating,morningglory; [12],20
same,Ducksalad plant response rating,ducksalad [5],90
same,Rice plant response rating,"rice [6]; 62 g ai/ha, scale 0 to 100",15
same,Rice plant response rating,rice [6]; [13],25
same,Rice plant response rating,rice [6]; [14],65
same,"Plant response rating, Rice",rice [6]; [15],70
same,Rice plant response rating,rice [7],70
same,"Sedge, Umbrella plant response rating","[8]; 62 g ai/ha, scale 0 to 100",0
same,"Sedge, Umbrella plant response rating",[8]; [13],25
same,"Sedge, Umbrella plant response rating",[8]; [14],70
same,"Plant response rating, Sedge, Umbrella",[8]; [15],80
same,Barnyardgrass plant response rating (0 to 100 scale),barnyardgrass [9]; [18],20
same,Barnyardgrass plant response rating,barnyardgrass [9]; [20],0
same,"Plant response rating, Barnyardgrass",barnyardgrass [9]; [16],80
same,Barnyardgrass plant response rating,barnyardgrass [9]; [12],10
same,"Sedge, Umbrella plant response rating",[10],90
same,Blackgrass plant response rating,blackgrass; [20],10
same,Blackgrass plant response rating,blackgrass; [12],30
